Earlier results on one compound are cited in patent publication US6436344B1, “Method of inactivating pathogens” (American National Red Cross, priority 1999, dated 2002).

The series deals with T1, human coagulation Factor IX (Homo sapiens, UniProt P00740).
T1 construct: highly-purified human coagulation Factor IX, a labile plasma clotting factor; from tissue
The settings on record: treatment with molecular iodine; cited from earlier work.

T1 sequence (P00740 47-461): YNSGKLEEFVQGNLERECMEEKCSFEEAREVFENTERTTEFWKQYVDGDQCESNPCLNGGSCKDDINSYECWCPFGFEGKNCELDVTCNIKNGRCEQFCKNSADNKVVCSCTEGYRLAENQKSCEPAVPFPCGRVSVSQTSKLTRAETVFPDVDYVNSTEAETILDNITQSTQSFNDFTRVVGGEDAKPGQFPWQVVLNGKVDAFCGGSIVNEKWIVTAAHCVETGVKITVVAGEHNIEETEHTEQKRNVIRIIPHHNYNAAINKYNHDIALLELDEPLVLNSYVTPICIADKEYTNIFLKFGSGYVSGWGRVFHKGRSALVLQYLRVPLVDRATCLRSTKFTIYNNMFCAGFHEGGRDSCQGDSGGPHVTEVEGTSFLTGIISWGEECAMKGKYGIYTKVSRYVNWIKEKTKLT

Regarding `II` [molecular iodine], the “effect on Factor IX” value was “completely inactivate”.
